Assay results: paper PMC9618446 (Biomedicine & Pharmacotherapy, 2022)

How the values were obtained:
Type in all cases: cell-based
[1] = test system: SARS-CoV-2 S protein variant N501Y PsV; settings: read-out: IC50 against SARS-CoV-2 S variant PsV N501Y
[2] = test system: SARS-CoV-2 S protein variant D614G PsV; settings: read-out: IC50 against SARS-CoV-2 S variant PsV D614G
[3] = test system: SARS-CoV-2 S protein variant P681H PsV; settings: read-out: IC50 against SARS-CoV-2 S variant PsV P681H

`COc1c(O)cc2oc(-c3ccccc3)cc(=O)c2c1O` [OA, Oroxylin A] gave an IC50 [1] of 13.6 ± 1.24 µM, an IC50 [2] of 18.1 ± 0.67 µM and an IC50 [3] of 19.6 ± 2.39 µM.
